The EC50 is the concentration needed to bring the measured effect to its halfway point.

The target in this test is T1, recombinant human ALX receptor (Homo sapiens, UniProt P25090).
T1 construct: expressed in transfected cells; host or cells: HEK293 (HEK293-hALXR-Gα16)
T1 sequence (P25090 1-351): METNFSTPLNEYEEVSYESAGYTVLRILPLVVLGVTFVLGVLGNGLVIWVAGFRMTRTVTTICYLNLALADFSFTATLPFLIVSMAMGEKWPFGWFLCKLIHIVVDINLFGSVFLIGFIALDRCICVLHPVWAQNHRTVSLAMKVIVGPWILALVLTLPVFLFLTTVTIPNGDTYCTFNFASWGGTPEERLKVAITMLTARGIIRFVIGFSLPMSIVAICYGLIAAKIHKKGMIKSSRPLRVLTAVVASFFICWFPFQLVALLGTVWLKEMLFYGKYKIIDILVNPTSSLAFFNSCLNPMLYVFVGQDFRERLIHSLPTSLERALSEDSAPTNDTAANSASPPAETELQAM
Description: Intracellular calcium measurements (FLIPR), ALX receptor agonistic activity. Particulars: HEK293-hALXR-Gα16 cells, Fluo-4 calcium signal, normalized to WKYMVm 10 nM. Type of test: cell-based. The method, boiled down:
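HEK293 cells co-expressing human ALX receptor and Gα16 were loaded with 1 μM Fluo-4 AM for 60 min at 37° C., then exposed to serially diluted compounds on FLIPR Tetra. Peak fluorescence above baseline (ex 488/em 540 nm) was normalized to 10 nM WKYMVm as high control.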
For orientation: Calcium flux is commonly read through the fluorescence of an indicator in the cells.
Take “(R)-tert-Butyl 4-((3-(1-(1H-benzo[d]imidazol-2-yl)-2-(4-methoxyphenyl)ethyl)ureido)methyl)piperidine-1-carboxylate [Example 106]”: the EC50 amounted to 538 nM.
For `COc1ccc(C[C@@H](NC(=O)NCc2ccccc2OC(F)F)c2nc3ccccc3[nH]2)cc1` [Example 198, (R)-1-(1-(1H-Benzo[d]imidazol-2-yl)-2-(4-methoxyphenyl)ethyl)-3-(2-(difluoromethoxy)benzyl)urea], the EC50 came out at 299 nM.
The figure for `COc1ccc(C[C@@H](NC(=O)NC2CCc3cc(OC)c(OC)cc32)c2nc3ccccc3[nH]2)cc1` (stereo partly drawn) [Example 348, 1-((R)-1-(1H-Benzo[d]imidazol-2-yl)-2-(4-methoxyphenyl)ethyl)-3-(5,6-dimethoxy-2,3-dihydro-1H-inden-1-yl)urea] is 26 nM.
The figure for `COc1ccc(CC(NC(=O)Nc2cc(-c3ccc(Cl)cc3)nn2C)c2nc3ccccc3[nH]2)cc1` (stereo not shown) [Example 403, 1-(1-(1H-Benzo[d]imidazol-2-yl)-2-(4-methoxyphenyl)ethyl)-3-(3-(4-chlorophenyl)-1-methyl-1H-pyrazol-5-yl)urea] is 118 nM; for `COc1ccc(CC(NC(=O)NC2CCC(CO)CC2)c2nc3ccccc3[nH]2)cc1` (stereo not shown) [Example 74, 1-(1-(1H-Benzo[d]imidazol-2-yl)-2-(4-methoxyphenyl)ethyl)-3-(4-(hydroxymethyl)cyclohexyl)urea] it is 13 nM.
The figure for `COc1ccc(C[C@@H](NC(=O)NCCN2CCN(C(C)=O)CC2)c2nc3ccccc3[nH]2)cc1` [Example 390, (R)-1-(1-(1H-Benzo[d]imidazol-2-yl)-2-(4-methoxyphenyl)ethyl)-3-(2-(4-acetylpiperazin-1-yl)ethyl)urea] is 2680 nM; for `COc1ccc(CC(NC(=O)NCc2cnc3ccccn23)c2nc3ccccc3[nH]2)cc1` (stereo not shown) [Example 51, 1-(1-(1H-Benzo[d]imidazol-2-yl)-2-(4-methoxyphenyl)ethyl)-3-(imidazo[1,2-a]pyridin-3-ylmethyl)urea] it is 990 nM; for `COc1ccc(C[C@@H](NC(=O)N2CCC3NCCC32)c2nc3ccccc3[nH]2)cc1` (stereo partly drawn) [Example 128, N—((R)-1-(1H-Benzo[d]imidazol-2-yl)-2-(4-methoxyphenyl)ethyl)hexahydropyrrolo[3,2-b]pyrrole-1(2H)-carboxamide] it is 308 nM.
`COc1ccc(C[C@@H](NC(=O)N[C@@H](C)c2ccc(OC)cc2)c2nc3ccccc3[nH]2)cc1` [Example 330, 1-((R)-1-(1H-Benzo[d]imidazol-2-yl)-2-(4-methoxyphenyl)ethyl)-3-((S)-1-(4-methoxyphenyl)ethyl)urea]: the EC50 was determined as 205 nM.
Turning to `COc1ccc(CC(NC(=O)N[C@H]2CC[C@H](O)CC2)c2nc3ccc(F)cc3[nH]2)cc1F` (single isomer, unassigned; ent-1) [Example 318, 1-(1-(6-Fluoro-1H-benzo[d]imidazol-2-yl)-2-(3-fluoro-4-methoxyphenyl)ethyl)-3-(trans-4-hydroxycyclohexyl)urea (ent-1)], the EC50 was found to be 1.2 nM.
The figure for `COc1ccc(C[C@@H](NC(=O)NC2CCCC2)c2nc3ccccc3[nH]2)cc1` [Example 75, (R)-1-(1-(1H-Benzo[d]imidazol-2-yl)-2-(4-methoxyphenyl)ethyl)-3-cyclopentylurea] is 41 nM; for `COc1ccc(CC(NC(=O)Nc2ccnn2-c2ccc(OC(F)(F)F)cc2)c2nc3ccccc3[nH]2)cc1` (stereo not shown) [Example 413, 1-(1-(1H-benzo[d]imidazol-2-yl)-2-(4-methoxyphenyl)ethyl)-3-(1-(4-(trifluoromethoxy)phenyl)-1H-pyrazol-5-yl)urea] it is 153 nM.
Under `COC(=O)N1CC2CCC1CN2C(=O)N[C@H](Cc1ccc(OC)cc1)c1nc2ccccc2[nH]1` (stereo partly drawn) [Example 162, Methyl 5-(((R)-1-(1H-benzo[d]imidazol-2-yl)-2-(4-methoxyphenyl)ethyl)carbamoyl)-2,5-diazabicyclo[2.2.2]octane-2-carboxylate] stands 866 nM.

The values above are taken from patent US9663473B2 (Actelion Pharmaceuticals Ltd, priority 2013, dated 2017).
